Data on twelve compounds can be found in US20250171495A1, “MUTLI-TARGETED SERINE PROTEASE INHIBITORS FOR TREATMENT OF CANCER AND VIRAL INFECTION” (Washington University, priority 2023, published 2025).

pEC50: −log10 of the molar value. Numbered stars: 1 amine (or outer) side, 2 acyl side, 3 side chain; on linkers, the order of the positions; unused ones are H or OH. Square brackets hold non-standard residues; d marks the D form. Peptide text beside a SMILES is read from it. X1 = N=C(N)NCCC[C@H](N[*:1])C(=O)c1nc2ccc(C(=O)[*:2])cc2s1

One test has as its system VSV-SARS-CoV-2. The experiment in a line: microbe, parasite or virus in culture. Conditions: Vesicular stomatitis virus, Calu-3, in Homo sapiens, read-out: VSV SARS CoV-2 Cell Entry EC50 (nM).
Usually EC50 stands for the concentration at which the effect is half-maximal. For the compound `CC(=O)N[C@@H](CCCCN)C(=O)N[C@@H](CCC(N)=O)C(=O)N[C@@H](CC(C)C)C(=O)N[C@@H](CCCNC(=N)N)C(=O)c1nc2ccccc2s1` [ZFH7006, N-[(S)-3-methyl-1-[N-(S)-1-[(1,3-benzothiazol-2-yl)carbonyl]-4-guanidinobutylcarbamoyl]butyl](S)-2-[(S)-1-acetylamino-5-aminopentylcarbonyl-amino]glutaramide], the EC50 was determined as 572 nM.

Regarding `CC(=O)N[C@H]1Cc2ccc(cc2)Oc2cccc(c2)C[C@@H](C(=O)N[C@@H](CCCNC(=N)N)C(=O)c2nc3ccccc3s2)NC(=O)[C@H](CC(C)C)NC1=O` [VD5064B, N-[(S)-1-[(1,3-benzothiazol-2-yl)carbonyl]-4-guanidinobutyl]-(9S,12S,15S)-15-acetylamino-12-isobutyl-11,14-dioxo-2-oxa-10,13-diazatricyclo[15.2.2.1^3,^7]docosa-1(19),3,5,7(22),17,20-hexaene-9-carboxamide], the EC50 stood at 8370 nM. The same measure, in the same setting: the result for `CC(=O)N[C@@H](Cc1ccccc1)C(=O)N[C@@H](CC(C)C)C(=O)N[C@@H](Cc1ccccc1)C(=O)N[C@@H](CCCNC(=N)N)C(=O)c1nc2ccccc2s1` [ZFH7063, N-[(S)-1-[N-(S)-1-[(1,3-benzothiazol-2-yl)carbonyl]-4-guanidinobutylcarbamoyl]-2-phenylethyl](S)-2-[(S)-2-acetylamino-3-phenylpropionylamino]-4-methylvaleramide] reads 101 nM; that for `CC(=O)N[C@@H](Cc1c[nH]c2ccccc12)C(=O)N[C@@H](CC(C)C)C(=O)N[C@@H](CCCNC(=N)N)C(=O)c1nc2ccc(C(=O)O)cc2s1` [PK-1-105, 2-[(S)-2-[(S)-2-[(S)-2-acetylamino-3-(3-indolyl)propionylamino]-4-methylvalerylamino]-5-guanidinovaleryl]-1,3-benzothiazole-6-carboxylic acid], 721 nM. On the same count and under the same terms, the result for `CC(=O)N[C@@H](CCC(N)=O)C(=O)N[C@@H](Cc1ccccc1)C(=O)N[C@@H](CCCNC(=N)N)C(=O)c1nc2ccccc2s1` [MM3144, N-[(S)-1-[N-(S)-1-[(1,3-benzothiazol-2-yl)carbonyl]-4-guanidinobutylcarbamoyl]-2-phenylethyl](S)-2-acetylaminoglutaramide] reads 0.53 nM.

For `N=C(N)NCCC[C@H](NC(=O)[C@H](Cc1ccccc1)NC(=O)[C@H](N)Cc1c[nH]c2ccccc12)C(=O)c1nc2ccccc2s1` [PK-1-18A1, N-[(S)-1-[(1,3-benzothiazol-2-yl)carbonyl]-4-guanidinobutyl](S)-2-[(R)-2-amino-3-(3-indolyl)propionylamino]-3-phenylpropionamide], the EC50 worked out at 356 nM. Same read-out and setting: as for `CC(=O)N[C@@H](CO)C(=O)N[C@@H](CCCCN)C(=O)N[C@@H](CC(C)C)C(=O)N[C@@H](CCCNC(=N)N)C(=O)c1nc2ccc(C(=O)N[C@H](C(N)=O)C(C)C)cc2s1` [ZFH7116, N-[(S)-1-carbamoyl-2-methylpropyl]-2-[(S)-2-[(S)-2-[(S)-1-[(S)-2-acetylamino-3-hydroxypropionylamino]-5-aminopentylcarbonyl-amino]-4-methylvalerylamino]-5-guanidinovaleryl]-1,3-benzothiazole-6-carboxamide] (Ac-SKL[X1]V-NH2), the figure is 489 nM; as for `CC(=O)N[C@@H](CCCCN)C(=O)N[C@@H](CCC(N)=O)C(=O)N[C@@H](Cc1ccccc1)C(=O)N[C@@H](CCCNC(=N)N)C(=O)c1nccs1` [ZFH6101, N-[(S)-1-[N-(S)-4-guanidino-1-[(1,3-thiazol-2-yl)carbonyl]butylcarbamoyl]-2-phenylethyl](S)-2-[(S)-1-acetylamino-5-aminopentylcarbonylamino] glutaramide], 262 nM; as for `CC(=O)N[C@H](Cc1c[nH]c2ccccc12)C(=O)N[C@@H](Cc1ccccc1)C(=O)N[C@@H](CCCNC(=N)N)C(=O)c1nc2ccc(C(=O)O)cc2s1` [PK-1-93, 2-[(S)-2-[(S)-2-[(R)-2-acetylamino-3-(3-indolyl)propionylamino]-3-phenylpropionylamino]-5-guanidinovaleryl]-1,3-benzothiazole-6-carboxylic acid], 141 nM. As to `CCC(C)[C@H](NC(C)=O)C(=O)N[C@@H](CCC(N)=O)C(=O)N[C@@H](CO)C(=O)N[C@@H](CCCNC(=N)N)C(=O)c1nc2ccccc2s1` (stereo partly drawn) [MM3177, N-[(S)-2-hydroxy-1-[N-(S)-1-[(1,3-benzothiazol-2-yl)carbonyl]-4-guanidinobutylcarbamoyl]ethyl](S)-2-[(2S)-2-acetylamino-3-methylvalerylamino]glutaramide], the EC50 came to 36 nM. The same measure, in the same setting: the result for `CC(=O)N[C@@H](CO)C(=O)N[C@@H](CCCCN)C(=O)N[C@@H](CC(C)C)C(=O)N[C@@H](CCCNC(=N)N)C(=O)c1nc2ccccc2s1` [ZFH7053, N-[(S)-3-methyl-1-[N-(S)-1-[(1,3-benzothiazol-2-yl)carbonyl]-4-guanidinobutylcarbamoyl]butyl](S)-2-[(S)-2-acetylamino-3-hydroxypropionylamino]-6-aminohexanamide] reads 4270 nM.

A further test has as its system VSV-SARS-CoV-2.
Assay: not given
Conditions: VSV-.
For orientation: pEC50 means the negative decadic logarithm of the EC50, by convention in mol/L. With `CC(=O)N[C@H]1CC(=O)NCCCC[C@@H](C(=O)N[C@@H](CCCNC(=N)N)C(=O)c2nc3ccccc3s2)NC(=O)[C@H](CC(C)C)NC1=O` [VD2173, Ac-Cyclo(DLK)—R-ketobenzothiazole], the pEC50 is 6.71.

Staying with this test, now noted: read-out: VSV SARS CoV-2 Cell Entry EC50.
As for `CC(=O)N[C@@H](CCCCN)C(=O)N[C@@H](CCC(N)=O)C(=O)N[C@@H](CC(C)C)C(=O)N[C@@H](CCCNC(=N)N)C(=O)c1nc2ccccc2s1` [ZFH7006, N-[(S)-3-methyl-1-[N-(S)-1-[(1,3-benzothiazol-2-yl)carbonyl]-4-guanidinobutylcarbamoyl]butyl](S)-2-[(S)-1-acetylamino-5-aminopentylcarbonyl-amino]glutaramide], the pEC50 is 6.19.
